{"source": "PubChem BioAssay AID504322", "about": "(Emory University Molecular Libraries Screening Center, 2011)", "note": "The source made the active and inactive calls. How the calls were made is not given here.", "data": [{"test_system": "CHOP reporter cell assay, percent of control", "assay": "CHOP reporter inhibitor potency, dose response, cell-based (AID 504322);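 further: CHO cells carrying a CHOP reporter stimulated with tunicamycin to induce ER stress; potency is for inhibition of the stress-induced reporter signal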", "values": [{"smiles": "O=C(ONc1ccc(N=NC(=O)c2ccccc2O)cc1)c1ccccc1", "IC50": "> 10 µM (inactive)"}, {"smiles": "NC(=S)n1[nH]c(-c2ccc([N+](=O)[O-])cc2)c(N=Nc2ccc(Cl)cc2)c1=O", "IC50": "5.74 µM (inactive)"}, {"smiles": "O=[N+]([O-])c1ccc(S(=O)(=O)CC(CN2CCCCC2)N2CCCCC2)cc1", "note": "(stereo not drawn)", "IC50": "5.93 µM (inactive)"}, {"smiles": "COc1cccc(C(=O)C(C#N)=C(SC)SC)c1", "IC50": "> 10 µM (inactive)"}, {"smiles": "Cc1cccc(NC(=S)NC(NC(=O)OCc2ccccc2)C(Cl)(Cl)Cl)c1", "note": "(stereo not drawn)", "IC50": "9.44 µM (inactive)"}, {"smiles": "Cc1ccn2cc(-c3cc4ccccc4oc3=O)nc2c1", "IC50": "9.15 µM (inactive)"}, {"smiles": "CC1(c2ccccc2)CC(C)(C)N2C(=O)C3(C(C#N)=C(N)Oc4cc(O)ccc43)c3cccc1c32", "note": "(stereo not drawn)", "IC50": "5.48 µM (inactive)"}, {"smiles": "Cc1ccc(NC(=O)CCl)cc1S(=O)(=O)N1CCCCCC1", "IC50": "> 10 µM (inactive)"}, {"smiles": "O=C1N(c2ccccc2)C[C@@H]2C[C@@H](c3cccs3)N3CCC[C@@]123", "IC50": "5.69 µM (inactive)"}, {"smiles": "Cc1ccc(C2CN(C)C3(C(=O)Nc4ccccc43)C23COc2ccccc2C3=O)cc1", "note": "(stereo not drawn)", "IC50": "> 10 µM (inactive)"}, {"smiles": "OC(CNCC1CCCO1)Cn1c2ccc(Br)cc2c2cc(Br)ccc21", "note": "(stereo not drawn)", "IC50": "8.2 µM (inactive)"}, {"smiles": "CN(CCCC[C@H](CNCc1ccc(-c2ccccc2)cc1)N1C[C@H](c2ccccc2)N(CCc2ccc(Cl)c(Cl)c2)C(=O)C1=O)Cc1ccc(-c2ccccc2)cc1", "IC50": "9.37 µM (inactive)"}, {"smiles": "CCOC(=O)c1c(NC(=O)Cc2cccs2)sc(C(=O)NC2CCCCC2)c1C", "IC50": "2.99 µM"}, {"smiles": "CCc1ccc(OCC(=O)NC(NC(=S)Nc2ccc(Cl)cc2)C(Cl)(Cl)Cl)cc1", "note": "(stereo not drawn)", "IC50": "5.13 µM (inactive)"}, {"smiles": "Cc1cc2c3c(c1)C(C)(c1ccccc1)CC(C)(C)N3C(=O)C21C(C#N)=C(N)OC2=C1C(=O)CC(C)(C)C2", "note": "(stereo not drawn)", "IC50": "> 10 µM (inactive)"}, {"smiles": "O=C(Nc1ccc(Oc2c(F)c(F)c(F)c(F)c2F)cc1)OC1CCN2Cc3ccccc3N=C12", "note": "(stereo not drawn)", "IC50": "8.37 µM (inactive)"}, {"smiles": "CN(C)CCCn1c(SCC(=O)Nc2nc(-c3cccc(Br)c3)cs2)nc2ccccc2c1=O", "IC50": "9.51 µM (inactive)"}, {"smiles": "C/C(=N\\N=C1\\NC(=O)C(CC(=O)Nc2ccc(C)c(Cl)c2)S1)C(C)(C)C", "note": "(stereo not drawn)", "IC50": "9.43 µM (inactive)"}, {"smiles": "CC(C)c1ccccc1NC(=O)Cn1c(/C=C/c2ccccc2)nc2ccccc21", "IC50": "5.88 µM (inactive)"}, {"smiles": "O=C(NCc1nc(-c2ccc(C(F)(F)F)cc2)no1)Nc1cc(Cl)cc(Cl)c1", "IC50": "4.78 µM"}, {"smiles": "Cc1cc(/C=N/n2cnnc2)c(C)n1-c1ccc(OCc2ccc(Cl)cc2)cc1", "IC50": "0.38 µM"}, {"smiles": "CCCCc1ccc(Nc2nc(CCC)cc(=O)[nH]2)cc1", "IC50": "1.97 µM (inactive)"}, {"smiles": "O=C(NC(c1ccccc1)c1cc(Cl)c2cccnc2c1O)c1cccnc1", "note": "(stereo not drawn)", "IC50": "3.36 µM"}, {"smiles": "CCC(C)c1ccc(O)c(NC(=O)c2cncc(Br)c2)c1", "note": "(stereo not drawn)", "IC50": "6.67 µM (inactive)"}, {"smiles": "CCOc1ccc(-n2c(SCC(=O)Nc3ccc(Br)cc3)nc3n[nH]c(C)c3c2=N)cc1", "IC50": "8.02 µM (inactive)"}, {"smiles": "COc1cccc(N2CCN(c3ncnc4c3[nH]c3ccccc34)CC2C)c1", "note": "(stereo not drawn)", "IC50": "4.13 µM"}, {"smiles": "O=[N+]([O-])c1c(NCCCO)cc(Sc2ccc(Cl)cc2)c2nonc12", "IC50": "4.7 µM"}, {"smiles": "O=C(O)c1ccc(N/N=C/c2ccc3nccnc3c2)cc1", "IC50": "6.06 µM (inactive)"}, {"smiles": "COc1ccc(NS(=O)(=O)c2ccc(O)c(NC(=O)c3cc4c(C)nn(-c5ccc(F)cc5)c4s3)c2)cc1", "IC50": "6.99 µM (inactive)"}, {"smiles": "Cc1cc(C)cc(OC2CCCCC2NS(=O)(=O)c2ccccc2)c1", "note": "(stereo not drawn)", "IC50": "> 10 µM (inactive)"}, {"smiles": "COC(=O)C[C@]1(C(=O)OC)CN(C#N)N(c2ccc(Cl)cc2)C12c1ccccc1-c1ccccc12", "IC50": "2.16 µM"}, {"smiles": "CN1C2CCC1/C(=C/c1ccccn1)C(=O)/C2=C\\c1ccccn1", "IC50": "2.04 µM"}, {"smiles": "Cc1ccc(NC2=C/C(=N\\S(=O)(=O)c3cccs3)c3ccccc3C2=O)c(C)c1", "IC50": "4.52 µM"}, {"smiles": "CCCc1cc(C(=O)Cc2ccc(F)cc2)c(O)cc1O", "IC50": "5.98 µM (inactive)"}, {"smiles": "Cc1ccc(OCC(=O)N2N=C(C(F)(F)F)CC2(O)C(C)(C)C)cc1C", "note": "(stereo not drawn)", "IC50": "5.25 µM (inactive)"}, {"smiles": "CCOc1ccc(N(CC(=O)Nc2cccc(Cl)c2)S(=O)(=O)c2c(C)noc2C)cc1", "IC50": "2.02 µM"}, {"smiles": "Cn1c(=O)c([N+](=O)[O-])c(Cl)c2ccccc21", "IC50": "3.34 µM"}, {"smiles": "Cc1cc(-c2n[nH]c(=S)n2/N=C/C(Br)=C/c2ccccc2)n[nH]1", "IC50": "> 10 µM (inactive)"}, {"smiles": "NC(=O)c1ccc(C(F)(F)F)n(Cc2c(Cl)cccc2Cl)c1=O", "IC50": "9.4 µM (inactive)"}, {"smiles": "O=C(CCl)N(c1ccc(Cl)cc1)c1c[nH]c2ccccc12", "IC50": "9.58 µM (inactive)"}, {"smiles": "CCOc1cc(/C=N/NC(=O)COc2cccc(C)c2)ccc1OC(=O)c1cccs1", "IC50": "> 10 µM (inactive)"}, {"smiles": "O=C(COCC(=O)Nc1cccc(C(F)(F)F)c1)Nc1cccc(C(F)(F)F)c1", "IC50": "5.44 µM (inactive)"}, {"smiles": "CC(C)(C)OC(=O)NCCc1nnc(S(=O)(=O)Cc2ccc(Cl)cc2Cl)o1", "IC50": "> 10 µM (inactive)"}, {"smiles": "CCOc1cc(/C=C2/C(=O)ON=C2C)ccc1OCc1ccccc1F", "IC50": "9.48 µM (inactive)"}, {"smiles": "Nc1cc(Cl)ccc1Oc1ccc(Cl)cc1", "IC50": "4.67 µM (inactive)"}, {"smiles": "O=C(Oc1ccc(O)cc1)C12CC3CC(CC(C3)C1)C2", "IC50": "> 10 µM (inactive)"}, {"smiles": "C=C1C(=O)C=C2CN(C(=O)c3ccccc3)[C@@](Cc3ccc(F)cc3)(C(=O)OC)[C@@H]12", "IC50": "1.16 µM"}, {"smiles": "Cc1ccc(-n2c(Cl)c(Cl)nc(Cl)c2=O)cc1", "IC50": "1.04 µM"}, {"smiles": "O=S1(=O)C=C(Sc2nc3ccccc3s2)c2ccccc21", "IC50": "1.26 µM"}, {"smiles": "CC1=NN(c2nc(-c3ccc(C)cc3)cs2)C(=O)C1N=Nc1ccccc1O", "note": "(stereo not drawn)", "IC50": "6.66 µM (inactive)"}, {"smiles": "Cc1nc2ccccn2c1C(=O)N=Nc1c(O)n(CCC(C)C)c2ccccc12", "IC50": "> 10 µM (inactive)"}, {"smiles": "CC(C)Cn1c2c(c(=O)[nH]c1=O)C(C(F)(F)F)(C(F)(F)F)N=C(CCC1CCCCC1)N2", "IC50": "2.37 µM"}, {"smiles": "CCCCCn1c(=O)c(C(=O)Nc2nc3ccccc3[nH]2)c(O)c2ccccc21", "IC50": "4.96 µM"}, {"smiles": "CCCCCCN=C(CC)c1c(O)n(CCCC)c(=O)[nH]c1=O", "IC50": "7.59 µM (inactive)"}, {"smiles": "Cc1ccc(/C=N/n2c(C3CCCCC3)n[nH]c2=S)s1", "IC50": "5.3 µM (inactive)"}, {"smiles": "CCCCCCn1c(CN2CCN(Cc3ccccc3)CC2)nc2c1c(=O)n(C)c(=O)n2C", "IC50": "6.9 µM (inactive)"}, {"smiles": "O=C(O)CSCC(=O)Nc1ccc(C2CCCCC2)cc1", "IC50": "0.54 µM"}, {"smiles": "Cn1c(-c2cccc(OCc3ccccc3)c2)nc2c1c(=O)[nH]c(=O)n2Cc1ccccc1", "IC50": "> 10 µM (inactive)"}, {"smiles": "COc1c(CC=C(C)C)cc(C2CC(=O)c3c(O)cc(O)cc3O2)cc1CC=C(C)C", "note": "(stereo not drawn)", "IC50": "> 10 µM (inactive)"}, {"smiles": "CCOC(=O)/C(=C\\c1ccc(OC(F)F)cc1)C1=Nn2c(nnc2-c2ccc(Cl)cc2)SC1", "IC50": "3.2 µM (inactive)"}, {"smiles": "COC(=O)c1ccccc1NC1=C/C(=N\\S(=O)(=O)c2cccs2)c2ccccc2C1=O", "IC50": "> 10 µM (inactive)"}, {"smiles": "O=C(Nc1ccccc1Cl)c1ccccc1Oc1ccc(C(F)(F)F)cc1[N+](=O)[O-]", "IC50": "6.53 µM (inactive)"}, {"smiles": "O=c1[nH]c2ccccc2n1C1CCN(CCCC(c2ccc(F)cc2)c2ccc(F)cc2)CC1", "IC50": "6.34 µM (inactive)"}, {"smiles": "Cc1nn(C(C)(C)C)c(C)c1/C=N/OC(=O)Nc1ccc(Cl)cc1", "IC50": "< 0.16 µM"}, {"smiles": "COc1cc(/C=N/NC(=O)Nc2ccccc2)ccc1OCCOc1ccccc1C", "IC50": "9.34 µM (inactive)"}, {"smiles": "O=C(Nc1ccc(Oc2ccccc2)cc1)C1CCN(c2c3c(nc4ncnn24)CCC3)CC1", "IC50": "> 10 µM (inactive)"}, {"smiles": "CC(/C=N/n1c(C2CCCCC2)n[nH]c1=S)=C\\c1ccccc1", "IC50": "5.88 µM (inactive)"}, {"smiles": "C=CCSc1nc2ccccc2n1C(=O)/C=C/c1cc(OC)c(OC)c(OC)c1", "IC50": "4.16 µM"}]}]}
